Measured values published in patent US9896423B2, “Deuterium substituted 1-[2-(2,4-dimethyl-phenylsulfanyl)-phenyl]piperazine compound or derivatives thereof, and pharmaceutical composition and use thereof” (Jiangsu Jibeier Pharmaceutical Co. Ltd., priority 2014, dated 2018).
Several values for one entry are separate records, joined by “and”; a condition that tells them apart may be missing. Equal values may be shown once. Where a name gives a salt, the structure may show the parent alone. Read-outs that look alike come from different tables or passages of the source.

Experiments:
[1] = tested on: Male SD rats; assay: Rats swimming test; type: in vivo; conditions: for effect on length of time that the rats stopped swimming vs blank control: 14 days; for Duration without Move within 5 min: rats swimming, gavage 14 days, n = 10, x ± s
Source text: (§1) The following method is used for testing the antidepression effect of the compound of the present application. ICR mice or SD rats, gavaged for two successive weeks, were subjected to mice swimming test, mice tail suspension test and rats swimming test. See below for details of the tests and results.
Male SD rats weighing 200 to 220 g were used and they were fed with sterilized standard feed. The medicaments were the same as those in the mice tail suspension test, but the dosage administered to rats was half of that to mice.
Drug solution preparation: Since the dosage applied on rats was 1 ml/100 g body weight, the medicament solutions used in this test had the same concentrations as those used on mice.
The apparatus was the same as that in the […].
The rats were fasted for 4 hours, put in a round glass tank (ø 18 cm×h 40 cm, with water of 15 cm depth and at a temperature of 25° C.), and were allowed to swim for 15 min. One tank accommodated one rat at a time. The tank was refilled with clean water for another rat after one rat finished swimming. The rats were dried with a hot-air blower after swimming.
The forty rats were divided into 4 groups, each of which has 10 rats, according to the Excel random grouping.
The medicaments were correspondingly administered 1 ml/100 g body weight by gavage, once a day, to the animals in each test group for 14 successive days. The rat swimming test was performed one hour later after the last administration.
(§2) The data was given as “average±standard deviation” (x±s). One-way analysis of variance (ANOVA) was used for data difference statistics. Differences among the groups were determined by P<0.05.

[2] = tested on: Male ICR mice; assay: Mice tail suspension test; type: in vivo; conditions: for effect on length of time that the tail-suspended mice stopped moving vs blank control: two successive weeks; for Duration without Move within 6 min: mice tail suspension, gavage 14 days, n = 10, x ± s
Source text: as §1
The animals, medicaments, calculation of dosages to the mice, preparation of drug solution and apparatus are the same as those in the mice swimming test.
The medicaments were correspondingly administered by gavage, once a day, to the animals in the groups for 14 successive days, with the amount of 0.2 ml per 10 g of body weight. The mice were subjected to tail suspension one hour later after the last oral administration. The suspension continued for 6 min.
as §2

[3] = Pharmacokinetic test in rats, intravenous injection; type: in vivo, SD rats; conditions: 2 mg/kg iv; for concentration at 0.05 h / concentration at 0.133 h / concentration at 4 h / concentration at 6 h / concentration at 9 h / concentration at 12 h: male, SD, rat, plasma, intravenous, 2 mg/kg
Method: The preferred compound of the present disclosure was assessed in rats for its pharmacokinetic profile.
SD rats, male and female, weighing 150 to 250 g
Mobile phase: 10 mM ammonium formate aqueous solution:methanol=15:85
The ionization source was electrospray ionization source. The detection mode was positive mode. Multiple reaction monitoring (MRM) was used as the scanning mode. The ion reaction for the quantitative analysis was the following: m/z was 305.2\150.0 for XX, and 256.1\167.1 for diphenhydramine (the internal standard).
Four male SD rats were taken. The dosage was calculated as 5 mL/kg body weight and 2 mg/kg. XX or YY was dissolved in DMSO (3% of a total volume) and castor oil (3% of the total volume) was added to the solution, followed by agitating with a vortex mixer. Subsequently, saline was added to the mixture to the total volume to afford the intravenous injection for the rats. The injections were intravenously administered to four male SD rats. Blood from the rats' orbits was collected 3 min, 8 min, 15 min, 30 min, 1 hr, 2 hr, 3 hr, 4 hr, 6 hr, 9 hr, 12 hr and 24 hr later after the injection, respectively.
After the blood collection, the tubes were immediately gently turned upside down at least five times to ensure sufficient mixing, and placed on ice. Heparin was added for anticoagulation. The samples were centrifuged at 8000 rpm for 5 min to separate serum from erythrocyte. The serum was transferred with a pipettor to 2 mL polypropylene (PP) tubes, which were marked with the name of the compound and the time points, and stored in a refrigerator at −40° C. before LC-MS analysis. Samples with high concentrations were diluted with rat blank plasma.
2.5 μL of Meth-H2O and 5 μL of the internal standard solution (20 ng/mL, IS) were added to 50 μL of the plasma. Subsequently, 150 μL of methanol was added to the mixture to precipitate protein and the samples were then centrifuged at 13000 rpm for 5 min. The upper organic phase was taken out, filtrated with a 0.22 μM microporous membrane, and 2 μL of the sample was injected for the LC-MS analysis.

Concentrations in Plasma of Rats after Intravenous Injection ([3]; 0.133 h, individual rats): 89.0 ng/mL and 85.9 ng/mL and 86.8 ng/mL
Concentrations in Plasma of Rats after Intravenous Injection ([3]; 0.25 h, individual rats): 78.8 ng/mL and 77.3 ng/mL and 77.1 ng/mL
Concentrations in Plasma of Rats after Intravenous Injection ([3]; 0.5 h, individual rats): 76.9 ng/mL and 71.3 ng/mL and 75.8 ng/mL
Concentrations in Plasma of Rats after Intravenous Injection ([3]; 1 h, individual rats): 73.3 ng/mL and 68.6 ng/mL and 65.6 ng/mL
Concentrations in Plasma of Rats after Intravenous Injection ([3]; 2 h, individual rats): 69.5 ng/mL and 68.1 ng/mL and 54.4 ng/mL
Concentrations in Plasma of Rats after Intravenous Injection ([3]; 3 h, individual rats): 53.4 ng/mL and 49.8 ng/mL and 38.2 ng/mL
Concentrations in Plasma of Rats after Intravenous Injection ([3]; 4 h, individual rats): 38.5 ng/mL and 27.6 ng/mL and 25.1 ng/mL
Concentrations in Plasma of Rats after Intravenous Injection ([3]; 6 h, individual rats): 28.4 ng/mL and 25.8 ng/mL and 24.5 ng/mL
Concentrations in Plasma of Rats after Intravenous Injection ([3]; 9 h, individual rats): 16.1 ng/mL and 18.6 ng/mL and 14.1 ng/mL
Concentrations in Plasma of Rats after Intravenous Injection ([3]; 12 h, individual rats): 7.86 ng/mL and 7.50 ng/mL and 7.18 ng/mL
Concentrations in Plasma of Rats after Intravenous Injection ([3]; 24 h, individual rats): 2.57 ng/mL and 2.89 ng/mL and 3.68 ng/mL
concentration at 0.05 h ([3]; 0.05 h, mean, read-out: Concentrations in Plasma of Rats after Intravenous Injection, Mean ± SD): 126 ± 5.68 ng/mL
concentration at 0.05 h ([3]; 0.05 h after administration, individual rats, read-out: Concentrations in Plasma of Rats after Intravenous Injection): 134 ng/mL
concentration at 0.133 h ([3]; 0.133 h, individual rats, read-out: Concentrations in Plasma of Rats after Intravenous Injection): 86.5 ng/mL
concentration at 0.133 h ([3]; 0.133 h, mean, read-out: Concentrations in Plasma of Rats after Intravenous Injection, Mean ± SD): 87.1 ± 1.35 ng/mL
concentration at 4 h ([3]; 4 h, individual rats, read-out: Concentrations in Plasma of Rats after Intravenous Injection): 27.2 ng/mL
concentration at 4 h ([3]; 4 h, mean, read-out: Concentrations in Plasma of Rats after Intravenous Injection, Mean ± SD): 29.6 ± 6.03 ng/mL
concentration at 6 h ([3]; 6 h, individual rats, read-out: Concentrations in Plasma of Rats after Intravenous Injection): 25.8 ng/mL
concentration at 6 h ([3]; 6 h, mean, read-out: Concentrations in Plasma of Rats after Intravenous Injection, Mean ± SD): 26.1 ± 1.64 ng/mL
concentration at 9 h ([3]; 9 h, individual rats, read-out: Concentrations in Plasma of Rats after Intravenous Injection): 14.9 ng/mL
concentration at 9 h ([3]; 9 h, mean, read-out: Concentrations in Plasma of Rats after Intravenous Injection, Mean ± SD): 15.9 ± 1.96 ng/mL
concentration at 12 h ([3]; 12 h, individual rats, read-out: Concentrations in Plasma of Rats after Intravenous Injection): 8.44 ng/mL
concentration at 12 h ([3]; 12 h, mean, read-out: Concentrations in Plasma of Rats after Intravenous Injection, Mean ± SD): 7.75 ± 0.54 ng/mL
SMILES: [2H]C([2H])([2H])c1ccc(Sc2ccccc2N2CCNCC2)c(C([2H])([2H])[2H])c1 [XX, 1-{2-[2,4-bis(trideuteriomethyl)phenylsulfanyl]phenyl}piperazine hydrobromic acid salt]
effect on length of time that the rats stopped swimming vs blank control ([1]; 0.75 mg/kg gavage): showed a tendency to shorten
effect on length of time that the rats stopped swimming vs blank control ([1]; 1.5 mg/kg gavage): markedly shortened
Duration without Move within 5 min ([1]; 0.75 mg/kg): 242.4 ± 43.2 s
Duration without Move within 5 min ([1]; 1.5 mg/kg): 226.2 ± 43.2 s
effect on length of time that the tail-suspended mice stopped moving vs blank control ([2]; 1.5 mg/kg gavage): showed a tendency to shorten
effect on length of time that the tail-suspended mice stopped moving vs blank control ([2]; 3 mg/kg gavage): markedly shortened
Duration without Move within 6 min ([2]; 1.5 mg/kg): 212.6 ± 54.9 s
Duration without Move within 6 min ([2]; 3 mg/kg): 152.9 ± 35.4 s
Concentrations in Plasma of Rats after Intravenous Injection ([3]; 0.05 h after administration, individual rats): 123.2 ng/mL and 127.2 ng/mL and 121.4 ng/mL
